What was measured:
CCRF-CEM = assay: Tested for inhibition of compound against growth of CCRF-CEM cells at 1.0E-4 M; type: functional, Homo sapiens
L1210 = assay: Tested for inhibition of compound against growth of L1210 cells at 3.2E-5 M; type: functional, Mus musculus

## NC(=O)CC1=Cc2c(ccc3ccc(O)cc23)C1
CCRF-CEM
  Inhibition: 25%
L1210
  Inhibition: 25%

Reference: ChEMBL document CHEMBL1121433, “New cyclopenta[a]naphthalene derivatives. Synthesis of 2-(carbamylmethyl)-8-hydroxy-3H-cyclopental[a]naphthalene as a possible deoxyribonucleic acid binding agent” (1980)
